Reference: US20230167132A1, “FORMS AND COMPOSITIONS OF INHIBITORS OF PLASMA KALLIKREIN” (Takeda Pharmaceutical Company Limited, priority 2020, published 2023)
Where “and” joins values, the source holds several entries; their conditions need not be identical. Identical values can stand only once. Entries after “also recorded” stand apart in the source; their conditions may differ. Like-named read-outs stand apart in the source and are kept apart here.

Legend:
[1] = Intrinsic Dissolution Rate (IDR), Sirius inForm; format: physicochemical; conditions: for IDR Sector 1 average (pH 2.0) / IDR Sector 1 pH 2.0: pH 2.0, 37° C.; for IDR Sector 1 pH 2.0: individual runs; for XRPD Analysis Post Dissolution: solid form of disc after IDR analysis; for sector 1 IDR compared to free base form Compound 1 Form 1 / other forms: pH 2.0, comparison in words
Protocol: About 40 mg of the sample was compressed in a 6 mm disc recess, under 100 kg for 2 minutes, with greaseproof paper on the compression base, to form nondisintegrating discs. The discs were then plugged with a bung so that only one surface was exposed to the media during analysis and transferred to the Sirius inForm dissolution apparatus. Analysis was performed at 37° C. in 40 mL media (36 mL ISA water, 4 mL 0.1 M Acetate Phosphate Buffer). Dissolution data were collected over 4 pH sectors (pH 2.0, 5.5, 6.5, and 7.4) for a total of 2 hours—30 minutes per sector, with UV spectra collected every 30 seconds. A stir speed of 225 rpm was used with a 10 mm path length probe. The IDR was calculated based on the surface area of the 3/6/8 mm disc recess used (28.3 mm2 surface area). XRPD analysis was performed on all samples, both after compression of the material into the disc recess, and post dissolution analysis to observe any change in form. XRPD diffractograms were collected on the Bruker C2.

[2] = Storage for one week at 40° C./75% RH and 25° C./97% RH, XRPD; format: physicochemical
[3] = Competitive slurry / thermodynamic stability of solid forms; format: physicochemical; conditions: competitive slurries at 5 and 50° C. in selected solvents, XRPD
Protocol: To these, 40 vol (1 mL) selected solvents was added and the material slurried at 5° C. or 50° C. for 72 hours on a HEL polyblock (500 rpm stirring). Solids were subsequently isolated by filtration and dried under suction prior to analysis by XRPD. In all but one experiment, Form 1 was the sole detectable phase by XRPD obtained after 72 hours.
These were mixed, and then aliquots (20 mg) of this mixture were dispensed into HPLC vials and 90 vol (1.8 mL) selected solvents added. Samples were slurried using a Polar Bear with 500 rpm magnetic stirring at 5 and 50° C. After 24 hours, aliquots were removed and analysed by XRPD. Experiment numbers: 01-10.
120 mg of both Compound 6 Pattern 1 and Compound 6 Pattern 4 were dispensed into a 20 mL vial. These were mixed, and then aliquots (20 mg) of this mixture was dispensed into HPLC vials and 90 vol selected solvents were added. Samples were slurried using a Polar Bear with 500 rpm magnetic stirring. Aliquots were removed after four days and analyzed by XRPD.

[4] = Gravimetric vapour sorption (GVS) analysis; format: physicochemical; conditions: for XRPD post GVS analysis: change of solid form after GVS; for GVS hygroscopicity: classification in words
[5] = Solubility of Compound 1 in various solvents; format: physicochemical
Protocol: Solubility of >10 mg/mL was only observed in DMSO, NMP and MeOH:DCM 1:3 at 50° C.

[6] = target: plasma kallikrein (Homo sapiens, UniProt P03952); conditions: in vitro kallikrein kinase assay, reported in the '129 publication; cited from earlier work
[7] = one week (7 days), scaled-up / characterised material

Chain of plasma kallikrein (P03952 20-638, species assumed): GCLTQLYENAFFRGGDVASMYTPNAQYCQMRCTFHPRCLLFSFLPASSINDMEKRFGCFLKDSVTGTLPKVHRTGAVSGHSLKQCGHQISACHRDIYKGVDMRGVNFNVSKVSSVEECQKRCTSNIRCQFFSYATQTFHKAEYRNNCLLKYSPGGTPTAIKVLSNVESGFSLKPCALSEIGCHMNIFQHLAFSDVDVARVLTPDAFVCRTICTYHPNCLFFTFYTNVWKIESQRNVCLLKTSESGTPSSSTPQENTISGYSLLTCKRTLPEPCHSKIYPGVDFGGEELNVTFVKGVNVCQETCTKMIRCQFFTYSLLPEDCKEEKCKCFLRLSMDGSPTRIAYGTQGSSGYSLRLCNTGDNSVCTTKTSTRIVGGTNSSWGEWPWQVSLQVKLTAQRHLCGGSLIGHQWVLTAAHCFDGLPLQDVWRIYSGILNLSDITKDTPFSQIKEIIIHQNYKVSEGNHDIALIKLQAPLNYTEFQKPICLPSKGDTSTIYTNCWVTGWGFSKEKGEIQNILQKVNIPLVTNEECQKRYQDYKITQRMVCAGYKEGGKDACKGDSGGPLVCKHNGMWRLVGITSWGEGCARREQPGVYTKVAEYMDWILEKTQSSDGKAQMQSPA

In the case of `O=C(NCc1ncn2ccc(Cl)c(F)c12)c1cn(Cc2cn3cc(C4CC4)ccc3n2)nn1` [Compound 1 Form 1, N-((7-chloro-8-fluoroimidazo[1,5-a]pyridin-1-yl)methyl)-1-((6-cyclopropylimidazo[1,2-a]pyridin-2-yl)methyl)-1H-1,2,3-triazole-4-carboxamide], the “IDR Sector 1 average (pH 2.0)” value [1] is reported as 104.8 μg/min/cm^2, the “IDR Sector 1 pH 2.0” value [1] is reported as 104.3 μg/min/cm^2 and 105.2 μg/min/cm^2 and the “XRPD Analysis Post Dissolution” value [1] is reported as “No change”. The “Storage 25° C./97% RH, XRPD” value [2, 7] was “Compound 1 Form 1”, the “Storage 40° C./75% RH, XRPD” value [2, 7] was “Compound 1 Form 1” and the “thermodynamic stability relative to other solid forms” value [3] was “more thermodynamically stable than Compound 1 Form 3”. For the same compound, the “thermodynamic stability relative to other solid forms” value ([3]; listed as Form 1) was “more thermodynamically stable than Form 2; also recorded: more thermodynamically stable polymorph; also recorded: polymorph most stable to typical storage and process conditions”, the “GVS increase in mass” value ([4]; RH range not given) was 0.5% and the “XRPD post GVS analysis” value [4] was “Material unchanged by XRPD post GVS”. For the same compound, the GVS hygroscopicity [4] was “slightly hygroscopic”.
For `O=C(NCc1ncn2ccc(Cl)c(F)c12)c1cn(Cc2cn3cc(C4CC4)ccc3n2)nn1` [Compound 1, N-((7-chloro-8-fluoroimidazo[1,5-a]pyridin-1-yl)methyl)-1-((6-cyclopropylimidazo[1,2-a]pyridin-2-yl)methyl)-1H-1,2,3-triazole-4-carboxamide], the solubility ([5]; 25 °C, organic solvent or mixture, all solvents assessed, Compound 1 as synthesized in Example 1, read-out: solubility at 25° C.) was less than 10000 µg/mL, the solubility ([5]; Acetone, 50 °C, organic solvent or mixture, read-out: Solubility at 50° C.) was less than 10000 µg/mL and the solubility ([5]; Acetone:H2O 9:1, 50 °C, organic solvent or mixture, read-out: Solubility at 50° C.) was less than 10000 µg/mL. The solubility ([5]; Acetonitrile, 50 °C, organic solvent or mixture, read-out: Solubility at 50° C.) was less than 10000 µg/mL, the solubility ([5]; Acetonitrile:H2O 1:1, 50 °C, aqueous with cosolvent or surfactant or cyclodextrin, read-out: Solubility at 50° C.) was less than 10000 µg/mL and the solubility ([5]; DCM, 50 °C, organic solvent or mixture, read-out: Solubility at 50° C.) was less than 10000 µg/mL. The solubility ([5]; DMAC, 50 °C, organic solvent or mixture, read-out: Solubility at 50° C.) was less than 10000 µg/mL, the solubility ([5]; DMF, 50 °C, organic solvent or mixture, read-out: Solubility at 50° C.) was less than 10000 µg/mL and the “Solubility at 50° C.” value ([5]; DMSO) was greater than 10000 µg/mL. The solubility ([5]; DMSO, 50 °C, organic solvent or mixture, read-out: Solubility at 50° C.) was greater than 10000 µg/mL, the solubility ([5]; Ethanol, 50 °C, organic solvent or mixture, read-out: Solubility at 50° C.) was less than 10000 µg/mL and the solubility ([5]; Ethyl acetate, 50 °C, organic solvent or mixture, read-out: Solubility at 50° C.) was less than 10000 µg/mL. The solubility ([5]; IPA, 50 °C, organic solvent or mixture, read-out: Solubility at 50° C.) was less than 10000 µg/mL, the solubility ([5]; IPAC, 50 °C, organic solvent or mixture, read-out: Solubility at 50° C.) was less than 10000 µg/mL and the solubility ([5]; MEK, 50 °C, organic solvent or mixture, read-out: Solubility at 50° C.) was less than 10000 µg/mL. The solubility ([5]; MIBK, 50 °C, organic solvent or mixture, read-out: Solubility at 50° C.) was less than 10000 µg/mL, the solubility ([5]; MeOH:Chlorobenzene (1:1), 50 °C, organic solvent or mixture, read-out: Solubility at 50° C.) was less than 10000 µg/mL and the “Solubility at 50° C.” value ([5]; MeOH:DCM 1:3) was greater than 10000 µg/mL. It also gave a solubility ([5]; MeOH:DCM 1:3, 50 °C, organic solvent or mixture, read-out: Solubility at 50° C.) greater than 10000 µg/mL, a solubility ([5]; MeOH:H2O 9:1, 50 °C, organic solvent or mixture, read-out: Solubility at 50° C.) of less than 10000 µg/mL and a solubility ([5]; MeOH:Toluene (1:1), 50 °C, organic solvent or mixture, read-out: Solubility at 50° C.) of less than 10000 µg/mL. The solubility ([5]; MeOH:anisole (1:1), 50 °C, organic solvent or mixture, read-out: Solubility at 50° C.) was less than 10000 µg/mL, the solubility ([5]; Methanol, 50 °C, organic solvent or mixture, read-out: Solubility at 50° C.) was less than 10000 µg/mL and the “Solubility at 50° C.” value ([5]; NMP) was greater than 10000 µg/mL. It also gave a solubility ([5]; NMP, 50 °C, organic solvent or mixture, read-out: Solubility at 50° C.) greater than 10000 µg/mL, a solubility ([5]; TBME, 50 °C, organic solvent or mixture, read-out: Solubility at 50° C.) of less than 10000 µg/mL and a solubility ([5]; THF, 50 °C, organic solvent or mixture, read-out: Solubility at 50° C.) of less than 10000 µg/mL. The solubility ([5]; THF:H2O 9:1, 50 °C, organic solvent or mixture, read-out: Solubility at 50° C.) was less than 10000 µg/mL, the solubility ([5]; Toluene, 50 °C, organic solvent or mixture, read-out: Solubility at 50° C.) was less than 10000 µg/mL and the solubility ([5]; n-heptane, 50 °C, organic solvent or mixture, read-out: Solubility at 50° C.) was less than 10000 µg/mL. For the same compound, the solubility ([5]; t-BuOH, 50 °C, organic solvent or mixture, read-out: Solubility at 50° C.) was less than 10000 µg/mL, the solubility ([5]; t-BuOH:H2O 1:1, 50 °C, aqueous with cosolvent or surfactant or cyclodextrin, read-out: Solubility at 50° C.) was less than 10000 µg/mL and the EC50 [6] was less than 1 nM.
For `O=C(NCc1ncn2ccc(Cl)c(F)c12)c1cn(Cc2cn3cc(C4CC4)ccc3n2)nn1.O=C(O)C(=O)O` [Compound 6 Pattern 1], the “IDR Sector 1 average (pH 2.0)” value [1] was 866.8 μg/min/cm^2, the “IDR Sector 1 average (pH 2.0)” value ([1]; listed as Oxalate Pattern 1) was 866.8 μg/min/cm^2 and the “IDR Sector 1 pH 2.0” value ([1]; listed as Oxalate Pattern 1) was 895.9 μg/min/cm^2 and 837.7 μg/min/cm^2. The “sector 1 IDR compared to free base form Compound 1 Form 1 / other forms” value [1] was “increased sector 1 IDR”, the “XRPD Analysis Post Dissolution” value ([1]; listed as Oxalate Pattern 1) was “Partial conversion to Compound 1” and the “Storage 25° C./97% RH, XRPD” value [2, 7] was “unchanged by XRPD”. For the same compound, the “Storage 40° C./75% RH, XRPD” value [2, 7] was “unchanged by XRPD”, the “Storage 40° C./75% RH, XRPD” value ([2]; one week, material isolated from salt/cocrystal screening experiments) was “slightly changed” and the “thermodynamic stability relative to other solid forms” value ([3]; listed as Oxalate Pattern 1) was “Less thermodynamically stable”. The GVS mass increase ([4]; between 0 and 90% RH) was 0.6%, the “XRPD post GVS analysis” value [4] was “no observed change” and the GVS hygroscopicity [4] was “slightly hygroscopic”.
With `O=C(NCc1ncn2ccc(Cl)c(F)c12)c1cn(Cc2cn3cc(C4CC4)ccc3n2)nn1.O=C(O)C(=O)O` [Compound 6 Pattern 4] the “IDR Sector 1 average (pH 2.0)” value ([1]; listed as Oxalate Pattern 4) was 674.7 μg/min/cm^2, the “IDR Sector 1 pH 2.0” value ([1]; listed as Oxalate Pattern 4) was 692.8 μg/min/cm^2 and 656.6 μg/min/cm^2 and the “sector 1 IDR compared to free base form Compound 1 Form 1 / other forms” value [1] was “increased sector 1 IDR”. The “XRPD Analysis Post Dissolution” value ([1]; listed as Oxalate Pattern 4) was “Partial conversion to Compound 1”, the “Storage 25° C./97% RH, XRPD” value [2, 7] was “unchanged by XRPD” and the “Storage 40° C./75% RH, XRPD” value [2, 7] was “unchanged by XRPD”. For the same compound, the “thermodynamic stability relative to other solid forms” value [3] was “more thermodynamically stable of the two solvent-free oxalate salts; also recorded: more thermodynamically stable than Compound 6 Pattern 1”, the “thermodynamic stability relative to other solid forms” value ([3]; listed as Oxalate Pattern 4) was “More thermodynamically stable” and the GVS mass loss ([4]; between 0 and 90% RH) was 0.66%. The “XRPD post GVS analysis” value [4] was “unchanged” and the GVS hygroscopicity [4] was “slightly hygroscopic”.
